From patent US20240239805A1, “AZA-YANG CYCLIZATION-BUCHNER AROMATIC RING EXPANSION: COLLECTIVE SYNTHESIS OF CYCLOHEPTATRIENE-CONTAINING AZETIDINE LACTONES” (University of Kansas, priority 2022, published 2024)

System: U-2 OS (ATCC, HTB-96) cells
Experiment: Cell Painting: changes in cell morphology induced by synthesized compounds
Type: cell-based
Details: U-2 OS cells, 24-hour treatment; for Determination of bioactives: reproducibility of fingerprints and magnitude of the activity: Cell Painting feature vectors vs DMSO, 3 repeats, FIG. 8; for Clustering of fingerprints (similarity of fingerprints) with known bioactives: Cell Painting, cosine similarity, FIG. 9
Procedure: U-2 OS (ATCC, HTB-96) cells were cultured in T-75 flasks (Greiner, 658170) under McCoy's 5a medium (HIMedia, AT057), supplemented with 10% fetal bovine serum (FBS) and 1% Penicillin/Streptomycin solution, and incubated at 37° C. in a 5% CO2 atmosphere. Upon reaching 80% confluence, cells were washed, trypsinized (0.25% solution with EDTA, VWR, M143), and removed. Flasks were reseeded with one-fifth of the cell count for each passage. All cell plates reported in this paper were composed of U-2 OS from incubation lengths of five or fewer passages. 384 Black-welled plates with optically clear bottoms (Corning, 6569) were seeded with U-2 OS at a density of 1,000 cells per well and cells were allowed to incubate for 24 h to ensure adherence.
Three compound plates (Thermo Scientific, AB-1056) were constructed using an initial aliquot of a 50 mM compound solution solubilized in DMSO. Each compound aliquot was then twofold serially diluted in DMSO to yield eight concentrations ranging from 50 mM to 390 μM. This process was repeated so that compound plate 1 contained each of the 16 test (cycloheptatriene) compounds and one azetidinol, compound plate 2 contained 19 esters, and compound plate 3 contained the diazo compounds. Vehicle treatments were included in the plate design as DMSO-containing wells (around 200) with no added compound. Staurosporine diluted to 500 μM in DMSO was included on the plate as a positive control to test the transfer of compounds from pin transfer.
After a 24 h incubation period, untreated cell-containing plates and the compound plate were each fitted into a Library Copier, and a sterile Multi-Blot Replicator (V and P Scientific) was used to transfer a 100 nL volume from each well of the 384 well compound plate into the culture media (50 μL) of a corresponding well on the 384 well cell plate. These cell plates were reintroduced to a 37° C., 5% CO2 atmosphere for the duration of the 24-hour treatment period.
1 L of Hank's Buffered Saline Solution (HBSS) (1× from 10×) was prepared using 100 mL HBSS (10×) and diluted with 900 mL deionized water. The pH of the solution was adjusted to 7.2 with aqueous NaOH and filtered through a 0.2-micron filter. A 1% w/v solution of BSA (VWR, 0332) was prepared in 1×HBSS using 150 mg BSA, dissolved in 15 mL HBSS. The solution was filtered through a 0.2-micron filter. Live-cell MitoTracker (Thermo Fisher, M22426) staining solution was prepared using 6.5 μL of MitoTracker staining solution from a stock of 1 mM MitoTracker and dissolved in 13 mL of pre-warmed cell culture medium (RPMI) for a final concentration of 500 nM.
Staining dyes: a. […]

Structure (SMILES)	Determination of bioactives: reproducibility of fingerprints and magnitude of the activity	Clustering of fingerprints (similarity of fingerprints) with known bioactives
CC(C)(C)OC(=O)n1cc(C23C=CC=CC=C2[C@@]2(CN4CCCC[C@H]42)OC3=O)c2ccccc21 (stereo partly shown) [Compound 1-1-3]	showed reproducible fingerprints and magnitude of the activity	–
O=C1O[C@]2(CN3CCCC[C@H]32)C2=CC=CC=C[C@@]12c1ccsc1 [Compound 1-1-4]	showed reproducible fingerprints and magnitude of the activity	–
CC(=O)O[C@H]1C(=O)[C@@]2(C)[C@H]([C@H](OC(=O)c3ccccc3)[C@]3(O)C[C@H](OC(=O)[C@H](O)[C@@H](NC(=O)c4ccccc4)c4ccccc4)C(C)=C1C3(C)C)[C@]1(OC(C)=O)CO[C@@H]1C[C@@H]2O [taxol]	–	cluster together
CC[C@]1(O)C[C@H]2CN(CCc3c([nH]c4ccccc34)[C@@](C(=O)OC)(c3cc4c(cc3OC)N(C=O)[C@H]3[C@@](O)(C(=O)OC)[C@H](OC(C)=O)[C@]5(CC)C=CCN6CC[C@]43[C@@H]65)C2)C1 [vincristine]	–	cluster together
